Our source for the Km values is article PMC6274495, “Purification and Characterization of a White Laccase with Pronounced Dye Decolorizing Ability and HIV-1 Reverse Transcriptase Inhibitory Activity from Lepista nuda” (Molecules, 2016).

Where a name gives a salt, the structure may show the parent alone.

In the assay the test system is T1, L. nuda laccase.
T1 construct: gene EC 1.10.3.2; native, purified from culture broth (fraction SU3); 56 kDa monomer; white laccase
Briefly: spectrophotometric oxidation, Lineweaver-Burk plot. Format: biochemical, Collybia nuda. Particulars: HAc-NaAc buffer pH 4.6, 25 °C.

On to `CCn1c(=NN=c2sc3cc(S(=O)(=O)O)ccc3n2CC)sc2cc(S(=O)(=O)O)ccc21` [ABTS, 2,7-azinobis(3-ethylbenzothia-zolone-6-sulfonic acid) diammonium salt], for which the Km – broadly, the substrate concentration at which the rate is half of its maximum – amounted to 190 µM.
